Experiment: method code SF, from PMID: 6889867
Details: pH 7.4

Row | Structure (SMILES) | logD
1 | COc1c(Cl)cc(Cc2cnc(N)nc2N)cc1Cl | 2.59

Experiment: method code SF-AS, from PMID: 6889867
Details: not given

Row | Structure (SMILES) | logP
2 | Cc1c(N(C)C)cc(Cc2cnc(N)nc2N)cc1N(C)C | 2.06
3 | CCOC(=O)c1c(OC)cc(Cc2cnc(N)nc2N)cc1OC | 1.25
4 | COc1cc(OC)c(OC)cc1Cc1cnc(N)nc1N | 1.17
5 | COc1cc(Cc2cnc(N)nc2N)cc(OC)c1SC | 1.54
6 | COc1cc(Cc2cnc(N)nc2N)cc(O)c1O | -0.31
7 | CN(C)c1cc(Cc2cnc(N)nc2N)cc(N(C)C)c1 | 1.6
8 | COc1cc(Cc2cnc(N)nc2N)cc(OC)c1O | 0.37
9 | COc1cc(Cc2cnc(N)nc2N)cc(OC)c1C(=O)CS(C)(=O)=O | -0.31
10 | COc1cc(Cc2cnc(N)nc2N)cc(OC)c1CO | 0.42
11 | COc1cc(Cc2cnc(N)nc2N)ccc1OCc1ccccc1 | 2.66
12 | CNc1cc(Cc2cnc(N)nc2N)cc(N(C)C(C)=O)c1C | 0.53
13 | COc1cc(C)c(Cc2cnc(N)nc2N)cc1OCc1ccccc1 | 2.69
14 | COc1cc(Cc2cnc(N)nc2N)cc(OCc2ccccc2)c1OC | 2.37
15 | COc1cc(Cc2cnc(N)nc2N)cc(OC)c1-n1cccc1 | 1.78
16 | CCOc1cc(Cc2cnc(N)nc2N)cc(OCC)c1C(=O)CS(C)(=O)=O | 0.79
17 | COc1cc(Cc2cnc(N)nc2N)cc(C)c1OC | 1.62
18 | COc1cccc(Cc2cnc(N)nc2N)c1 | 1.54
19 | Nc1ccc(Cc2cnc(N)nc2N)cc1 | 0.22
20 | COc1ccc(Cc2cnc(N)nc2N)cc1OCc1ccccc1 | 2.44

Row | Structure (SMILES) | logP
21 | CCCCOc1cc(Cc2cnc(N)nc2N)c(C)cc1OC | 2.78
22 | COc1cc(Cc2cnc(N)nc2N)cc(OC)c1OCC#N | 0.72
23 | COc1c(C)cc(Cc2cnc(N)nc2N)cc1C | 2.19
24 | COc1ccc(Cc2cnc(N)nc2N)cc1OC | 0.97
25 | COCc1c(OC)cc(Cc2cnc(N)nc2N)cc1OC | 1.19
26 | COc1cc(C)c(Cc2cnc(N)nc2N)cc1OC | 1.23
27 | COc1cc(Cc2cnc(N)nc2N)ccc1C(C)(C)O | 1.38
28 | COC(=O)COc1c(OC)cc(Cc2cnc(N)nc2N)cc1OC | 0.55
29 | COc1c(O)cc(Cc2cnc(N)nc2N)cc1O | -0.04
30 | COc1cc(Cc2cnc(N)nc2N)cc(OC)c1Cl | 1.87
31 | COc1cc(Cc2cnc(N)nc2N)cc(OC)c1C(=O)OC(C)C | 1.72
32 | COc1cc(Cc2cnc(N)nc2N)cc(OC)c1C(=O)N(C)C | -0.21
33 | CCOc1c(OC)cc(Cc2cnc(N)nc2N)cc1OC | 1.34
34 | COc1cc(Cc2cnc(N)nc2N)ccc1O | 0.64
35 | CCSc1c(OC)cc(Cc2cnc(N)nc2N)cc1OC | 1.79
36 | COc1cc(Cc2cnc(N)nc2N)cc(OC)c1OCc1ccccc1 | 2.46
37 | C=C(C)c1c(OC)cc(Cc2cnc(N)nc2N)cc1OCC | 2.65
38 | CNc1cc(Cc2cnc(N)nc2N)cc(NC)c1 | 0.44
39 | COCCOc1c(OC)cc(Cc2cnc(N)nc2N)cc1OC | 0.56

Same assay, conditions: pH 7.4

Row | Structure (SMILES) | logD
40 | COc1cc(Cc2cnc(N)nc2N)cc(OCc2ccccc2)c1OCc1ccccc1 | 3.9
41 | COc1cc(Cc2cnc(N)nc2N)cc(OC)c1C#N | 1.2
42 | Nc1ncc(Cc2ccc3c(c2)OCO3)c(N)n1 | 1.3
43 | CCOc1cc(Cc2cnc(N)nc2N)cc(OC)c1C(C)(C)O | 1.92
44 | O=C1CN=C(c2ccccc2F)c2cc(I)ccc2N1CC(O)CO (centres undefined) | 1.81
45 | COc1cc(Cc2cnc(N)nc2N)cc(OC)c1C(C)=O | 0.91
46 | CCOc1cc(Cc2cnc(N)nc2N)cc(OCC)c1-n1cccc1 | 2.74
47 | CCOc1cc(Cc2cnc(N)nc2N)cc(OCC)c1C(C)=O | 1.85
48 | COc1cc(Cc2cnc(N)nc2N)cc(OC)c1C(C)(C)O | 1.3
49 | C=CCc1c(OCC)cc(Cc2cnc(N)nc2N)cc1OCC | 2.89
50 | COc1cc(Cc2cnc(N)nc2N)cc2c1OCO2 | 1.19
51 | Nc1ncc(Cc2cc3c(cc2Br)OCO3)c(N)n1 | 2.3
52 | COc1cc(Cc2cnc(N)nc2N)cc(OC)c1Br | 1.82
53 | COc1ccc(Cc2cnc(N)nc2N)c(OC)n1 | 1.83
54 | Nc1ncc(Cc2cc(Cl)c(Cl)c(Cl)c2)c(N)n1 | 3.45
55 | COc1c(N(C)C)cc(Cc2cnc(N)nc2N)cc1N(C)C | 1.86
56 | COc1cc(Cc2cnc(N)nc2N)cc(OC)c1C(C)C | 3.18
57 | Nc1ncc(Cc2cc(Cl)c(Cl)cc2Cl)c(N)n1 | 3.6

Row | Structure (SMILES) | logD
58 | COc1c(OCc2ccccc2)cc(Cc2cnc(N)nc2N)cc1OCc1ccccc1 | 3.7
59 | COc1cc(Cc2cnc(N)nc2N)cc(I)c1OC | 2.14
60 | COc1cc(Cc2cnc(N)nc2N)cc(OC)c1I | 2.21
61 | COc1cc(Cc2cnc(N)nc2N)cc(Cl)c1OC | 1.73
62 | COc1cncc(OC)c1Cc1cnc(N)nc1N | 1.48
63 | COc1cc(Cc2cnc(N)nc2N)cc(OC)c1N | 0.6
64 | COc1cc(Cc2cnc(N)nc2N)c(Cl)c(OC)c1 | 1.94
65 | COc1cc(Cc2cnc(N)nc2N)ccc1SC | 1.73
66 | Cc1cc2c(cc1Cc1cnc(N)nc1N)OCO2 | 1.7
67 | COc1cc(Cc2cnc(N)nc2N)ccc1C | 1.95
68 | COc1cc(OC)c(Cl)c(Cc2cnc(N)nc2N)c1Cl | 2.32
69 | COC(=O)c1c(OC)cc(Cc2cnc(N)nc2N)cc1OC | 0.76
70 | CNc1cc(Cc2cnc(N)nc2N)cc(N(C)C)c1OC | 1.56
71 | CCOC(=O)c1c(OCC)cc(Cc2cnc(N)nc2N)cc1OCC | 2.09
72 | CCOc1cc(Cc2cnc(N)nc2N)cc(OCC)c1N | 1.5
73 | COc1ccc(Cc2cnc(N)nc2N)cc1O | 0.55
74 | CCOc1cc(Cc2cnc(N)nc2N)cc(OCC)c1C(C)(C)O | 2.3

— the SangsterLogP compilation
